Test results taken from patent US20100145057A1, “NOVEL PRODRUGS” (SUN PHARMA ADVANCED RESEARCH COMPANY LTD., priority 2007, published 2010).
Read-outs that look alike come from different tables or passages of the source.

What was measured:
[1] = Comparative bioavailability: baclofen plasma levels after oral baclofen or example 15; assay type: in vivo; settings: 20 ug/kg, baclofen dosed 20 mcg/kg p.o.
Protocol: (§1) The prodrugs compounds of the present invention, i.e. the compounds of formula-I release in-vivo the compounds of formula III. Two of the representative compounds of the present invention i.e. compound of example 5 and compound 15, were tested to determine the comparative bioavailability of the drug and the prodrug. The following method was employed for the determination of bioavailability of the test compound of example 5.
(§2) Table 1 and Table 2 below provide Dose-concentration data for the representative compounds 5 and compound 15 of the invention, which are prodrugs of gabapentin and baclofen respectively.

[2] = Comparative bioavailability: LC-MS determination of gabapentin in plasma after oral gabapentin or example 5; assay type: in vivo; settings: for dose dependence of bioavailability / absorption (in words): data of Table 1, 50 and 100 mg/kg p.o.; for AUC(0-t): po, t = 24 hrs, plasma
Protocol: as §1
Liquid Chromatography Mass Spectrometric Method for the Determination of Gabapentin from Example 5 in Plasma.
Mobile phase: Prepare 2 mM ammonium acetate solution in milliQ water and adjust the pH to 3.0 with formic acid. Mix above buffer solution and acetonitrile in the ratio (30:70 v/v) and filter.
Column: Hypurity C18, 50×2.1 mm, 5μ; Column oven temperature: 40° C.; Flow rate: 0.25 ml/min; Injection volume: 10 μl; Run time: 2.0 min.; Retention time: Example 5: 1.0 min.; Gabapentin: 1.0 min.; Carbamazepine: 1.0 min.;
Mass Parameters: Spray Voltage: 3500 V; Sheath Gas Pressure: 35 ml/min; Capillary Temperature: 380° C.; Mode: Positive; Aux gas pressure: 10 ml/min
For Gabapentin Linearity Range: 200 ng-19600 ng/ml in mobile phase.
For example 5: Linearity Range: 50 ng 5000 ng/ml in mobile phase.
A 100 μl plasma sample and 5 μl of internal standard was taken in a micro centrifuge tube. Vortex for 20-30 sec. The test samples were loaded in preconditioned HLB cartridges. The cartridge was washed with 1 ml Milli-Q water the sample was eluted with 500 μl of mobile phase. The sample was centrifuged at 15000 rpm for 5 minutes and the supernatant was collected for analysis.
as §2

[3] = cited from earlier work
mouse = settings: cited from earlier work
[4] = oral; cited from earlier work

Structure (SMILES): NCC(CC(=O)O)c1ccc(Cl)cc1 (centres unmarked) [Baclofen]
- Cmax [1]: 3600 ng/mL
- AUC(0-t) ([1]; t = 24 hrs): 15000 ng·h/mL

Structure (SMILES): CCOC(=O)C(C)=NOC(=O)NCC1(CC(=O)O)CCCCC1 [Example 5, N-[(Ethyl oximinopropionate-2-yl)carbonyl]-1-aminomethyl cyclohexaneacetic acid]
- dose dependence of bioavailability / absorption (in words) [2]: dose-proportional bioavailability

Structure (SMILES): NCC1(CC(=O)O)CCCCC1 [Gabapentin, 1-(aminomethyl)cyclohexaneacetic acid]
- oral bioavailability ([3]; 900 mg/day oral): approximately 60%
- oral bioavailability ([3]; 1800 mg/day oral): ~27%
- dose dependence of bioavailability / absorption (in words) [2]: non-linear saturable absorption, with lower bioavailability at the higher dose
- AUC(0-t) ([2]; gabapentin dosed 50 mg/kg p.o.): 85000 ng·h/mL
- AUC(0-t) ([2]; gabapentin dosed 100 mg/kg p.o.): 99000 ng·h/mL
- LD50 (mouse): > 8000 mg/kg

Structure (SMILES): NC[C@H]1CC[C@H](C(=O)O)CC1 [Tranexamic acid, trans-4-(aminomethyl)cyclohexanecarboxylic acid]
- orally administered dose absorbed [4]: 35-40%

Structure (SMILES): O=C1CC2(CCCCC2)CN1 [corresponding lactam]
- LD50 (mouse): 300 mg/kg
